One data set in a line: Kinetic solubility. The class given is physicochemical. As to conditions: Universal Aqueous buffer pH 7.4. The method, then: Kinetic Solubility: 396 μL of Universal Aqueous buffer (pH 7.4) was added to 4 μL of a 50 mM DMSO stock solution of each compound. Wells were agitated for 4 hours at 20° C. and then filtered. The compound was then diluted to serial concentrations with DMSO, followed by serial dilutions with ACN:H2O (1:1) prior to liquid chromatography-mass spectroscopy (LCMS) analysis. The calculated concentration (μM) of soluble compound was determined in reference to a standard curve.

The target of another data set is CYP2D6 (Homo sapiens, UniProt P10635). Nature of the data set: Human CYP inhibition in human liver microsomes. Format: in vitro ADME. The protocol: (§1) Study samples (containing either control inhibitor or test compound) were added into the tubes, vortexed gently and pre-incubated for 5 min at 37° C. 20 μL of NADPH solution was aliquoted into all tubes, then vortexed to start the reaction and to assure adequate mixture of the NADPH. After mixing, the tubes were incubated for 20 min at 37° C. in a shaking water bath and then quenched in […] formic acid/acetonitrile solution. After quenching, the samples were vortexed vigorously for 1 min and centrifuged at 4,000 rpm for 15 min (4° C.). 100 μL of supernatant was transferred to 0.65 ml tubes for LCMS analysis by the bioanalytical method described earlier. The CYP450 substrates and control inhibitors for each enzyme was as follows: CYP1A2 (phenacetin, naphthoflavone), CYP2C9 (diclofenac, sulfaphenazole), CYP2C19 (omeprazole, tranylcypromine), CYP2D6 (dextromethorphan, quinidine), CYP3A4 (midazolam, ketoconazole).
Chain of CYP2D6 (P10635 whole entry): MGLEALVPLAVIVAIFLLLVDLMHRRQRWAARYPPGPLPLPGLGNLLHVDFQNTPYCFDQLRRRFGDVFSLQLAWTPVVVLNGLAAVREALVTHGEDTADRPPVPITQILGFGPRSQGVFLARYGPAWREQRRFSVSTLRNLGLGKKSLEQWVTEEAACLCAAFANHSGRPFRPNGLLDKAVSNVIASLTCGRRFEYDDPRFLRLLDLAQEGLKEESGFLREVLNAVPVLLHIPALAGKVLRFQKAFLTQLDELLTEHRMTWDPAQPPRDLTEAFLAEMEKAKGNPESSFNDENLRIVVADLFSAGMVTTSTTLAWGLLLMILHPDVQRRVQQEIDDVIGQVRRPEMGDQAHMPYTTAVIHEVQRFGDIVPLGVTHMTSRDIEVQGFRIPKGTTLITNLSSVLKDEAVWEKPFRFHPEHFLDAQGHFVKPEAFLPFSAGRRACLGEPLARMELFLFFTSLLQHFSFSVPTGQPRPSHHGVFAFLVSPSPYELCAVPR
Background: Liver microsomes are vesicles of endoplasmic reticulum, rich in cytochrome P450 enzymes.

Another data set concerns the target CYP3A4 (Homo sapiens, UniProt P08684). The experiment in a line: Human CYP inhibition in human liver microsomes. The class given is in vitro ADME. The protocol: as §1
A short description of the next data set: in vitro. The class given is in vitro ADME, human. The method, then: Protein Binding in Plasma: The donor side of dialysis inserts were filled with 200 μL plasma (human and mouse; source BioDuro, San Diego, California, United States of America) containing 5 μM drug and 0.5% of DMSO and the receiver side of the dialysis inserts was filled with 350 μL of PBS buffer (100 mM, pH 7.4). The prepared dialysis apparatus was placed in a shaker (37° C., 100 rpm) for 5 hours. Two tubes with plasma containing 5 μM experimental compound were also prepared for stability test: one tube was placed in the […] for 5 hours and the other tube was placed in shaker ([…], 100 rpm) for 5 hours. Samples were collected from the donor and receiver sides of each dialysis insert. The same volume of blank plasma was added to buffer samples and blank buffer to plasma samples to make sure all sample mixtures contain 50% plasma and 50% buffer. 50 μL of each sample was mixed with 300 μL of acetonitrile containing 25 ng/ml internal standard (propranolol). All samples were vortexed for 1 minute and then centrifuged at 4000 rpm, 4° C. for 15 min. 100 μL of the supernatant was transferred to 0.65 ml tube for LCMS analysis. The amount of compound was determined on the basis of the peak area ratio (compound area to internal standard area) for the two sides, and protein binding is determined using the following equations: % Bound=100×([Area Ratio of Donor]5h*5−[Area Ratio of Receiver]5h)/([Area Ratio of Donor]5h*5). The percentage remaining at 37° C. after 5 hours was calculated on the basis of the amount measured at 0° C. after 5 hours.

The subject of a further data set is HIV-1 IIIB (wild-type). The experiment in a line: HIV inhibition assay in TZM-bl cells, wild-type. Format: cell-based. Particulars: Human immunodeficiency virus 1, IIIB; for IC50: read-out: IC50 (TZM, WT). The method in brief: (§2)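 TZM-bl cells with 15 μg/mL DEAE-dextran were infected with H9-grown HIV-1 IIIB, wild-type or A17 (Y181C/K103N), in the presence of compound (0.005% or 0.05% DMSO) for 48 h at 37 °C. Luciferase RLU was read after lysis. Toxicity was measured in parallel by CellTiter-Blue fluorescence.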

Data set [1] has as its system HIV-1 IIIB A17 variant (Y181C/K103N). Nature of the data set: HIV inhibition assay in TZM-bl cells, A17 variant. The class given is cell-based. The method in brief: as §2
The nature of data set [2]: Toxicity assay in TZM-bl cells. The class given is cell-based. As to conditions: human. The method in brief: (§3)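 TZM-bl cells (2×10^5/mL, with DEAE-dextran) were exposed to serially diluted compound plus virus at a constant 0.005% or 0.05% DMSO for 48 h at 37 °C. CellTiter-Blue was added at 46 h and incubated 2 h. Viability was read as fluorescence at 560/590 nm after stopping with 1.5% SDS.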

The next data set relates to TZM-bl cells. The experiment in a line: Toxicity assay in TZM-bl cells. The class given is cell-based. The method in brief: as §3
[3] abbreviates: Table 3, TZM-bl, ± SEM, minimum 6 replicates.
The mark [4] stands for this setting: Human immunodeficiency virus 1, IIIB, TZM-bl, read-out: IC50 (TZM, A17), Table 3, TZM-bl, ± SEM, minimum 6 replicates.
Setting [5] is: Human immunodeficiency virus 1, IIIB, TZM-bl, read-out: IC50 (TZM, A17), Table 4, TZM-bl.

Usually solubility stands for the dissolved amount per volume that the medium holds. A lower solubility goes with little dissolved substance. As usually defined, the IC50 is the midpoint of a concentration-inhibition curve. As a reminder, the CC50 is the concentration giving 50% cytotoxicity. In general, half-life refers to how long it takes for the measured level to halve.

Read-outs that look alike come from different tables or passages of the source. Bounds are passed on as bounds.

Chain of CYP3A4 (P08684 whole entry): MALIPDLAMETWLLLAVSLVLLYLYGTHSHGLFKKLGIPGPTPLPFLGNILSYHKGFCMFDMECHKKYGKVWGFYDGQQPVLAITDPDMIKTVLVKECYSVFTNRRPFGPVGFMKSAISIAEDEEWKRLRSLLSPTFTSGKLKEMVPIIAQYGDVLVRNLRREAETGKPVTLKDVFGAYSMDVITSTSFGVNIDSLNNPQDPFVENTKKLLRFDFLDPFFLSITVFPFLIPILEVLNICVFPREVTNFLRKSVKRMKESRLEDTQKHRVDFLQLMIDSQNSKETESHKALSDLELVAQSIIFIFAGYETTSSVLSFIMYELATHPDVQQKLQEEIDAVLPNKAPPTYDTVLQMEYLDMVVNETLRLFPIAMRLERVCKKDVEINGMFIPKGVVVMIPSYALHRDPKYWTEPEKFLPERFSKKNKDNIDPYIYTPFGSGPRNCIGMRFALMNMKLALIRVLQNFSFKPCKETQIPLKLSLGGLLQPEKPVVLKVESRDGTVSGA

For the molecule `Nc1nc(Nc2ccc(Cl)cc2)nn1S(=O)(=O)c1ccc2ccccc2c1` [Compound 1, N3-(4-chlorophenyl)-1-(2-naphthylsulfonyl)-1,2,4-triazole-3,5-diamine], the solubility at 4 h in “Kinetic solubility” is listed as less than 0.2 µM. The IC50 against CYP2D6 was more than 50000 nM; on CYP3A4, more than 50000 nM; in the data set with HIV-1 IIIB (wild-type) (setting [3]), 9.33 ± 2.27 nM; with HIV-1 IIIB (wild-type) (Table 4, TZM-bl) it was 9.33 nM; in data set [1] (setting [4]), more than 1000 nM; in data set [1] (setting [5]), more than 1000 nM. In addition, the “Human plasma protein binding” value in the data set “in vitro” (5 μM, dialysis 5 hours) is recorded as more than 99.9%. Further, in data set [2], the CC50 at 48 h was more than 1000 nM. The “Qualitative Cell Toxicity within inhibition range” value in the data set with TZM-bl cells is on record as “None”.
`N#C/C=C/c1ccc2c(S(=O)(=O)n3nc(Nc4ccc(C#N)c(Cl)c4)nc3N)cccc2c1` [Compound 20, 4-[[5-amino-1-[[6-[2-cyanovinyl]-1-naphthyl]sulfonyl]-1,2,4-triazol-3-yl]amino]-2-chloro-benzonitrile]: the solubility at 4 h in the data set “Kinetic solubility” (20 °C, kinetic from dmso stock) was less than 0.2 µM. Moreover, the IC50 at CYP2D6 (human liver microsomes, substrate dextromethorphan, read-out: CYP inhibition IC50, 2D6) was more than 50000 nM; on CYP3A4 (human liver microsomes, substrate midazolam, read-out: CYP inhibition IC50, 3A4), 31300 nM; in the data set with HIV-1 IIIB (wild-type) (setting [3]) it was 0.263 ± 0.05 nM; in the data set with HIV-1 IIIB (wild-type) (Table 4, TZM-bl), 0.309 nM; in data set [1] (setting [4]), 0.689 ± 0.143 nM; in data set [1] (setting [5]), 45.4 nM. Moreover, the half-life at 5 μM in the data set “in vitro” (human, plasma) is more than 6.21 h. The fraction unbound in the data set “in vitro” (human, plasma, pH 7.4, 5 μM, dialysis 5 hours, read-out: Human plasma protein binding) is less than 0.001. Further, the EC50 in the data set on HIV-1 IIIB (wild-type) (text b494, FIG. 2F, read-out: antiviral activity against wildtype, EC50) turned out to be 0.22 nM; in data set [1] (Human immunodeficiency virus 1, IIIB, TZM-bl, read-out: activity against the A17 double mutant (Y181C/K103N), EC50), 1.86 nM. For the same molecule, in data set [1], the “activity against the A17 variant, in words” value is on record as “retained potent activity”. Besides, the CC50 at 48 h in data set [2] (Table 4, TZM-bl, read-out: CC50 (TZM)) turned out to be 4950 nM; in data set [2] (text b494, FIG. 2F, read-out: cytotoxicity CC50), 5350 nM. Besides, in the data set on TZM-bl cells (Table 3, TZM-bl), the “Qualitative Cell Toxicity within inhibition range” value is given as “None”. Also, the “Quantitative Cell Toxicity” value in the data set with TZM-bl cells (Table 3, TZM-bl) stood at 4.06 µM.

Values taken from US20250179033A1 (priority 2021, published 2025).
